Results taken from PubChem BioAssay AID1918947 (Molecular Pharmacology Branch, DTP, NCI, 2023).
Several values for one entry are separate records, joined by “and”; a condition that tells them apart may be missing. Identical values can stand only once.

System: A498 complex spheroid viability
Experiment: Anticancer human tumor A498 cell line growth inhibition;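 also: spheroids exposed to agents for seven days before readout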;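 as to viability, T/C: 100% = DMSO vehicle-treated spheroids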
Details: for viability, T/C: stronger effect = lower value
Outline: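 Multicellular complex spheroids of tumor cells with human endothelial cells (HUVEC) and mesenchymal stem cells; the LSD1 inhibitor iadademstat was combined with standard-of-care or investigational agents. Top concentration at or near clinical Cmax, half-log dilutions; final DMSO ≤0.25%.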

[1] = curve of first compound, second compound 0.1 µM
[2] = curve of first compound, second compound 0.316 µM
[3] = curve of first compound, second compound 1 µM
[4] = curve of first compound, second compound 3.16 µM
[5] = curve of first compound, second compound 10 µM
[6] = second compound 0.1 µM, first compound 0.000949 µM
[7] = second compound 0.1 µM, first compound 0.003 µM
[8] = second compound 0.1 µM, first compound 0.00949 µM
[9] = second compound 0.1 µM, first compound 0.03 µM
[10] = second compound 0.1 µM, first compound 0.0949 µM
[11] = second compound 0.1 µM, first compound 0.3 µM
[12] = second compound 0.316 µM, first compound 0.000949 µM
[13] = second compound 0.316 µM, first compound 0.003 µM
[14] = second compound 0.316 µM, first compound 0.00949 µM
[15] = second compound 0.316 µM, first compound 0.03 µM
[16] = second compound 0.316 µM, first compound 0.0949 µM
[17] = second compound 0.316 µM, first compound 0.3 µM
[18] = second compound 1 µM, first compound 0.000949 µM
[19] = second compound 1 µM, first compound 0.003 µM
[20] = second compound 1 µM, first compound 0.00949 µM
[21] = second compound 1 µM, first compound 0.03 µM
[22] = second compound 1 µM, first compound 0.0949 µM
[23] = second compound 1 µM, first compound 0.3 µM
[24] = second compound 3.16 µM, first compound 0.000949 µM
[25] = second compound 3.16 µM, first compound 0.003 µM
[26] = second compound 3.16 µM, first compound 0.00949 µM
[27] = second compound 3.16 µM, first compound 0.03 µM
[28] = second compound 3.16 µM, first compound 0.0949 µM
[29] = second compound 3.16 µM, first compound 0.3 µM
[30] = second compound 10 µM, first compound 0.000949 µM
[31] = second compound 10 µM, first compound 0.003 µM
[32] = second compound 10 µM, first compound 0.00949 µM
[33] = second compound 10 µM, first compound 0.03 µM
[34] = second compound 10 µM, first compound 0.0949 µM
[35] = second compound 10 µM, first compound 0.3 µM

In the case of `CCc1c2c(nc3ccc(O)cc13)-c1cc3c(c(=O)n1C2)COC(=O)[C@]3(O)CC` + NC1CCC(NC2CC2c2ccccc2)CC1, the IC50 [1] is reported as < 0.949 nM, the IC50 [2] is reported as < 0.949 nM and the IC50 [3] is reported as < 0.949 nM. For the same molecule, the IC50 [4] was < 0.949 nM, the IC50 [5] was < 0.949 nM and the viability, T/C [6] was 44.1%. For the same molecule, the viability, T/C [7] was 34.7%, the viability, T/C [8] was 26.7% and the viability, T/C [9] was 3.44%. It also gave a viability, T/C [10] of 0.09%, a viability, T/C [11] of 0.11% and a viability, T/C [12] of 46%. It also gave a viability, T/C [13] of 33%, a viability, T/C [14] of 26.4% and a viability, T/C [15] of 3.19%. The viability, T/C [16] was 0.19%, the viability, T/C [17] was 0.12% and the viability, T/C [18] was 47.1%. The viability, T/C [19] was 37.2%, the viability, T/C [20] was 25.6% and the viability, T/C [21] was 3.37%. The viability, T/C [22] was 0.22%, the viability, T/C [23] was 0.47% and the viability, T/C [24] was 44.5%. It also gave a viability, T/C [25] of 34.5%, a viability, T/C [26] of 27.7% and a viability, T/C [27] of 1.91%. The viability, T/C [28] was 0.05%, the viability, T/C [29] was 0.11% and the viability, T/C [30] was 42.5%. The viability, T/C [31] was 31%, the viability, T/C [32] was 26% and the viability, T/C [33] was 4.35%. It also gave a viability, T/C [34] of 0.12% and a viability, T/C [35] of 0.17%.

In the case of `CCc1c2c(nc3ccc(O)cc13)-c1cc3c(c(=O)n1C2)COC(=O)[C@]3(O)CC` + NC1CC1c1ccc(-c2cccc(O)c2)cc1, the IC50 [1] is reported as < 0.949 nM, the IC50 [2] is reported as < 0.949 nM and the IC50 [3] is reported as < 0.949 nM. For the same molecule, the IC50 [4] was < 0.949 nM, the IC50 [5] was < 0.949 nM and the viability, T/C [6] was 39.9%. The viability, T/C [7] was 34.3%, the viability, T/C [8] was 23.6% and the viability, T/C [9] was 0.69%. The viability, T/C [10] was 0.04%, the viability, T/C [11] was 0.13% and the viability, T/C [12] was 37.5%. The viability, T/C [13] was 36.1%, the viability, T/C [14] was 25.2% and the viability, T/C [15] was 1.05%. For the same molecule, the viability, T/C [16] was 0.04%, the viability, T/C [17] was 0.13% and the viability, T/C [18] was 42.8%. It also gave a viability, T/C [19] of 31.7%, a viability, T/C [20] of 23.8% and a viability, T/C [21] of 0.94%. It also gave a viability, T/C [22] of 0.05%, a viability, T/C [23] of 0.13% and a viability, T/C [24] of 43%. The viability, T/C [25] was 32%, the viability, T/C [26] was 24.8% and the viability, T/C [27] was 1.16%. The viability, T/C [28] was 0.06%, the viability, T/C [29] was 0.51% and the viability, T/C [30] was 41%. For the same molecule, the viability, T/C [31] was 30.1%, the viability, T/C [32] was 23.3% and the viability, T/C [33] was 0.83%. It also gave a viability, T/C [34] of 0.14% and a viability, T/C [35] of 0.99%.

With `CC(C)CC(NC(=O)CNC(=O)c1cc(Cl)ccc1Cl)B1OC(=O)CC(CC(=O)O)(C(=O)O)O1` (centres undefined) the viability, T/C (compound 0.000316 µM) was 102% and 107%, the viability, T/C (compound 0.001 µM) was 106% and 107% and the viability, T/C (compound 0.00316 µM) was 69.4% and 75.4%. The viability, T/C (compound 0.01 µM) was 24.7% and 21.5%, the viability, T/C (compound 0.0316 µM) was 5.96% and 6.51% and the viability, T/C (compound 0.1 µM) was 2.46% and 1.92%. The IC50 (curve of compound) was 5.29 nM and 5.46 nM.

For `CC(C)c1c(-c2ccccc2)nc2c(C#N)c[nH]n2c1=O`, the viability, T/C (compound 0.0316 µM) was 101% and 102%, the viability, T/C (compound 0.1 µM) was 104% and 102% and the viability, T/C (compound 0.316 µM) was 101% and 104%. The viability, T/C (compound 1 µM) was 103% and 97.9%, the viability, T/C (compound 3.16 µM) was 102% and 107% and the viability, T/C (compound 10 µM) was 101% and 107%. The IC50 (curve of compound) was > 10000 nM.
